Consider 50 molecules from ChEMBL document CHEMBL1201862, “PubChem BioAssay data set” (2004).

Calls of active or inactive are those of the source.

One may read the EC50 as the concentration giving half of the maximal effect. A word on the AC50: it is the concentration giving half of the maximal activity seen.

The nature of data set [1]: cytotoxicity toward NIH3T3 fibroblasts, dose response, counter-screen, cell-based, ATP luminescence, mouse fibroblasts (AID 2010).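 Further: cells exposed to compound for about 90 hours before reading.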 Format: functional.
Data set [2] in a line: inhibitors of intracellular T. cruzi replication, confirmation, NIH3T3 host cells, beta-gal luminescence (AID 2044).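 Further: intracellular parasites grown in NIH/3T3 mouse fibroblasts as host cells; luminescent beta-galactosidase reporter signal from transgenic T. cruzi replicating inside host cells; inhibitors lower the luminescence signal.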 The class given is functional, cell-based.
Data set [3] concerns Streptococcus sp. 'group A'. Nature of the data set: growth inhibition of control SK(-) GAS strain, dose response, counter-screen for streptokinase expression inhibitor project, luminescence, kanamycin, BacTiterGlo, confirmation (AID 1900). Format: functional, organism-based.
The test system of the next data set is Streptococcus. The experiment in a line: Group A Streptococcus viability loss, dose response, counter-screen for streptokinase expression inhibitor project, luminescence, BacTiterGlo (AID 1915).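 Further: potency for reduction of bacterial viability or growth.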 The class given is functional, organism-based.
The target of a further data set is T1, Streptokinase A (Streptococcus pyogenes serotype M1, UniProt P10520).
T1 sequence (P10520 whole entry): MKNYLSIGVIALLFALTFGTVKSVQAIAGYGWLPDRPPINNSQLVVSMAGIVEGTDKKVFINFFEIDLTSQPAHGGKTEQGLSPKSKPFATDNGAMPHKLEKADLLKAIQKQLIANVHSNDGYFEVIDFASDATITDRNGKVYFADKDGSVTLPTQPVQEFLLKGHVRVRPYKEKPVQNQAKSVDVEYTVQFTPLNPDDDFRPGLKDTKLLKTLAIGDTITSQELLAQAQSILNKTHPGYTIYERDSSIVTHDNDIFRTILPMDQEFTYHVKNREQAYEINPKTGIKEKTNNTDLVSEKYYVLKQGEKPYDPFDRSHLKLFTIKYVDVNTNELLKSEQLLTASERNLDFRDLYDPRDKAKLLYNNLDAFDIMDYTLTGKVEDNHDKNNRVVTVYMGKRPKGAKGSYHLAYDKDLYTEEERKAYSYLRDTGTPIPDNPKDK
Nature of the data set: S. pyogenes streptokinase expression inhibitors, potency, dose response, plasminogen activation absorbance, OD405 (AID 1914).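 Further: secreted streptokinase activity via plasminogen activation per viability signal from cell pellet.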 Format: functional, Streptococcus pyogenes M1 GAS.

Data set [4] has as its target T2, Heat shock factor protein 1 (Mus musculus, UniProt P38532).
T2 sequence (P38532 whole entry): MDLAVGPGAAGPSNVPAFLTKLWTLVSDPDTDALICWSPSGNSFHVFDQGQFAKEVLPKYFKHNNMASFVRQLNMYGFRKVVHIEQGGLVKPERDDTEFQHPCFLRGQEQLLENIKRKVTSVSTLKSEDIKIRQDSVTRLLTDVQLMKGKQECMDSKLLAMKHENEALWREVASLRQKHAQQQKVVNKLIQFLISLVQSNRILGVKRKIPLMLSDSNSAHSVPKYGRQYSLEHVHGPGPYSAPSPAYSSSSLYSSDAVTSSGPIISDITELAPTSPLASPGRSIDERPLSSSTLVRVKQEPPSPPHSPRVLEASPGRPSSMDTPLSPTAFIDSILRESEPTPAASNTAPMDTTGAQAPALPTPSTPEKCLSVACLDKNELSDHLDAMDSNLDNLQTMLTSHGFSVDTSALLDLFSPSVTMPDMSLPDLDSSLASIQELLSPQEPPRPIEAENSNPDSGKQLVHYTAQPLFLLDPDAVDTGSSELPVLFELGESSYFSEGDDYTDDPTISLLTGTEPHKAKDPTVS
The experiment in a line: inhibition of MG132-induced HSE-luciferase signal, confirmation, cell-based, NIH3T3, luminescence, dose retest (AID 2382).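 Further: NIH3T3 fibroblasts with HSF1-driven luciferase reporter stressed by proteasome inhibitor MG132; luminescence from HSF1-driven luciferase expression after 8 hours of MG132 stress.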 Format: functional.

A further data set has as its target T3, Cytochrome P450 1A2 (Homo sapiens, UniProt P05177).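 Further: PubChem cytochrome P450 panel assay, CYP1A2 panel member.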
T3 sequence (P05177 whole entry): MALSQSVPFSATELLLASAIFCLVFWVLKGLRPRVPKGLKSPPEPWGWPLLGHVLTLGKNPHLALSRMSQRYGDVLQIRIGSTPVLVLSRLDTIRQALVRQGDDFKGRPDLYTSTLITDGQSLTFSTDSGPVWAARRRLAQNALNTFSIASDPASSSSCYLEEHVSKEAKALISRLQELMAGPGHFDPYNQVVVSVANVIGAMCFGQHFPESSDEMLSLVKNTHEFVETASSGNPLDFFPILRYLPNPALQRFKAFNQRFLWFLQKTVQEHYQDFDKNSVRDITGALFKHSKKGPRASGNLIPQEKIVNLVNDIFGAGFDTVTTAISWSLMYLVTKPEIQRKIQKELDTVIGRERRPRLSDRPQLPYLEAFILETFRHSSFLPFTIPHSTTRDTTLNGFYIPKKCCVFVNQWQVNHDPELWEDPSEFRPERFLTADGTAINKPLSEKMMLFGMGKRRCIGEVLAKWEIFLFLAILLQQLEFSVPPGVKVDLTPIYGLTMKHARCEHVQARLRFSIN

Another data set addresses Cytochrome P450 2C19 (Homo sapiens, UniProt P33261). The experiment in a line: Cytochrome panel assay with activity outcomes. Panel member name: p450-cyp2c19 Compounds with AC50 equal or less than 10 uM are considered active. Format: functional.

Chain of Cytochrome P450 2C19 (P33261 whole entry): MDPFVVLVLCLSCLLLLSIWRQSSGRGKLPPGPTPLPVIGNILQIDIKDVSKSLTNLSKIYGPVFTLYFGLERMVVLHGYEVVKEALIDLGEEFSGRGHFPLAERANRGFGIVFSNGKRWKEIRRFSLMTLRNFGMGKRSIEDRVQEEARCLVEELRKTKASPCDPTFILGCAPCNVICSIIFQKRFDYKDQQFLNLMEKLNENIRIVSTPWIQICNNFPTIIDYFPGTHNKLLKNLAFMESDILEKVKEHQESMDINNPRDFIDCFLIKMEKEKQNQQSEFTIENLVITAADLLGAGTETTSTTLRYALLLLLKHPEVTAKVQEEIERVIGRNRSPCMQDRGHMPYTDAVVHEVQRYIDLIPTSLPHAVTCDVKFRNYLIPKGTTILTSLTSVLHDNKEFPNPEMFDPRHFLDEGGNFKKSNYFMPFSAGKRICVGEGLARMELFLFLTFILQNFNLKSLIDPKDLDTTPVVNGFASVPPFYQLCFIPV

As for `CCN(CC)S(=O)(=O)c1ccc(N2CCN(c3cccc(OC)c3)CC2)c([N+](=O)[O-])c1`, the figures for the EC50 in data set [1] and in data set [2] were > 60 µM (not active) and 1.3 µM (active), respectively. With `Cc1ccccc1-c1nc2c3ccccc3nc(S)n2n1`, the EC50 in data set [3] is 14 µM (active); with Streptococcus, > 150 µM (not active); at Streptokinase A, > 150 µM (not active).

Regarding `CSc1nc(NCc2ccccc2)c2c3c(sc2n1)CN(C)CC3`, the EC50 is > 30 µM (not active) in data set [1] and 0.208 µM (active) in data set [2]. For `COc1cc(NC(=O)c2cc3cccc(OC)c3o2)cc(C(=O)Nc2cccc(C(F)(F)F)c2)c1`, the EC50 in data set [4] is 3.5 µM (active).

Turning to `COC(=O)c1cc2ccsc2n1Cc1nc(-c2ccc(Cl)cc2)oc1C`, the EC50 in data set [4] is listed as > 195 µM (not active). Consider `CC(C)NC(=O)N1CC2(CCN(C(=O)c3cc(C(F)(F)F)cc(C(F)(F)F)c3)CC2)C1`, for which, on Cytochrome P450 1A2, the AC50 is 12.6 µM (inconclusive). For the molecule `CNc1cc(N2CCCCCC2)ccc1[N+](=O)[O-]`, the AC50 at Cytochrome P450 2C19 (read-out: AC50) is 3.55 µM (inconclusive). For `O=C(CSc1nnc(NC(=O)C2CC(=O)N(c3ccc(F)cc3)C2)s1)NCc1ccco1` (stereo not drawn), the EC50 (in data set [3]; in the data set with Streptococcus; on Streptokinase A) was > 150 µM (not active) in each case.

Take `COc1ccc(-n2c(=O)[nH]cc(C(=O)Nc3ccc4c(c3)OCCO4)c2=O)cc1`: the AC50 at Cytochrome P450 2C19 (read-out: AC50) was 10 µM (inconclusive). As to `CC(=O)Nc1c(O)oc2ccccc2/c1=N\C(C)C`, the AC50 result on Cytochrome P450 2C19 is reported as “inconclusive”.

In the case of `CC(C)(C)N(Cc1ccccc1)C(=O)COc1cccnc1[N+](=O)[O-]`, the EC50 (in data set [3]; in the data set on Streptococcus; at Streptokinase A) was > 150 µM (not active) in each case. As for `O=C(O)CCN1Cc2ccccc2C1=O`, in data set [4], the EC50 is on record as > 195 µM (not active). `Cc1ccc(CN2CCN(Cc3cccc4c3OCO4)CC2CCO)cc1` (stereo not drawn): the EC50 was > 60 µM (not active) in data set [1] and 0.258 µM (active) in data set [2]. `NC(=O)C1CCN(c2ccnc3cc(Cl)ccc23)CC1`: in data set [4], the 50% effective concentration (EC50) is listed as > 195 µM (not active). The same measure, in the same setting: then `CSc1ncc(C(=O)Nc2cccnc2)c(C(F)(F)F)n1`, with > 195 µM (not active).

Regarding `CN(C)CCCNc1cnnc(O)c1Cl`, the EC50 is > 30 µM (not active) in data set [1] and 0.658 µM (active) in data set [2].

Turning to `S=C1NCN2CCN(CC2)CNC(=S)C(=S)NCN2CCN(CC2)CNC1=S`, the AC50 at Cytochrome P450 1A2 was 3.16 µM (inconclusive). As to `COc1ccc(C2C(=O)N(C3CCCCCC3)CC(=O)N2Cc2ccccc2)cc1OC` (stereo not drawn), at Cytochrome P450 2C19 (read-out: AC50), the AC50 is 39.8 µM (inconclusive).

As for `Cc1ccccc1-n1cnc2c(sc3nc(N4CCOCC4)c4c(c32)CCCC4)c1=O`, the EC50 was > 60 µM (not active) in data set [1] and 1.8 µM (active) in data set [2].

Take `COc1ccc(C(Nc2ccccn2)c2c(NC(=O)c3ccco3)sc(C)c2C)cc1` (stereo not drawn): the EC50 was > 60 µM (not active) in data set [1] and 1.86 µM (active) in data set [2]. On to `Cc1ccc(C)c(NC(=O)COc2coc(CN3CCc4ccccc4C3)cc2=O)c1`, for which the EC50 in data set [4] is reported as > 195 µM (not active).

With `CCOC(=O)Cc1csc(NC(=O)CSc2nnc(-c3ccc(OC)cc3)n2C)n1`, the EC50 in data set [1] and in data set [2] was > 60 µM (not active) each time. In the case of `Oc1ccccc1CNn1cnnc1`, the AC50 at Cytochrome P450 2C19 (read-out: AC50) was 0.2 µM (inconclusive). For the molecule `O=C(CSc1nc2cc(Cl)ccc2s1)Nc1cccc(S(=O)(=O)N2CCOCC2)c1`, the EC50 in data set [4] is > 195 µM (not active).

`N#Cc1cccc(-c2nccc(NCc3cccnc3)n2)c1`: the half-maximal activity concentration (AC50) on Cytochrome P450 2C19 (read-out: AC50) was 20 µM (inconclusive).

For the molecule `CN(C)/C=C/C(=O)c1ccc(-c2ccc(Cl)cc2Cl)o1`, in data set [4], the EC50 is reported as > 195 µM (not active). `CC(C)Cn1c(=O)n(C)c(=O)c2[nH]cnc21` [ISOBUTYLMETHYLXANTHINE]: the AC50 at Cytochrome P450 1A2 is 20 µM (inconclusive). Turning to `Cc1ccc(S(=O)(=O)c2c(C(=O)c3ccccc3)cnc3cc4c(cc23)OCCO4)cc1`, the EC50 in data set [4] is > 195 µM (not active). On the same count and under the same terms, for `Nn1c(=O)c2ccccc2n2c(SCc3ccccc3)nnc12` the value was > 195 µM (not active).

For the molecule `COC(=O)c1cc(=O)n(C2CC2)/c(=N/C2CC2)s1`, the AC50 result at Cytochrome P450 2C19 was “inconclusive”. Take `CCCc1c(OCCCOc2ccc(OCC(=O)O)cc2)ccc(CC=O)c1O`: on Cytochrome P450 1A2, the AC50 was 31.6 µM (inconclusive). Same read-out and setting: for `N#CCCn1c(=O)cnc2cnc(Oc3ccccc3)nc21` the value was 15.8 µM (inconclusive).

As to `COC(=O)[C@H]1[C@H]2C[C@@H]3c4[nH]c5cc(OC)ccc5c4CCN3C[C@H]2C[C@@H](OC(=O)c2ccc(N)cc2)[C@@H]1OC`, the values for the EC50 in data set [1], in data set [2] and in data set [4] were > 30 µM (not active), 2.04 µM (active) and > 195 µM (not active), respectively. As for `CCCN1C(=O)/C(=C\c2ccncc2)S/C1=N/c1ccccc1`, the EC50 in data set [4] is > 195 µM (not active). On to `O=c1c(-c2cc(F)cc(F)c2)nc2cnc(N3CCOCC3)nc2n1-c1ccccc1`, for which the AC50 at Cytochrome P450 1A2 was 5.01 µM (inconclusive).

For the molecule `COc1ccc(C(=O)C2CCCN(Cc3ccc(C#CCCO)cc3)C2)cc1F` (stereo not drawn), the EC50 in data set [1] was > 60 µM (not active); in data set [2], 0.475 µM (active). Take `Cc1ccccc1Nc1c(-c2ccncc2)nc2ccc(Br)cn12`: the EC50 in data set [1] is > 30 µM (not active); in data set [2], 0.832 µM (active).

As for `C[C@@](N)(C(=O)O)c1cccc(CC(=O)O)c1`, the AC50 on Cytochrome P450 1A2 is 39.8 µM (inconclusive); at Cytochrome P450 2C19 (read-out: AC50), 20 µM (inconclusive). On to `Cc1ccc(Cn2ncc3c(N4CCN(C)CC4)ncnc32)cc1`, for which, in data set [4], the EC50 was > 195 µM (not active). Same read-out and setting: for `COc1cccc(CNC(=O)Cn2c(=O)c3cccn3c3ccccc32)c1` the value was > 195 µM (not active). Consider `CC(=O)N(CCCc1ccc(C(C)(C)C)cc1)CCCN(C)C`, for which the EC50 in data set [1] was > 60 µM (not active); in data set [2], 0.65 µM (active).

For `CC1=[N+]([O-])C2(C)CCCCC2(O)[N+]([O-])=C1C` (stereo not drawn), the AC50 on Cytochrome P450 2C19 (read-out: AC50) was 15.8 µM (inconclusive). For `O=C(NC(=S)Nn1cnc2c(cnn2-c2ccccc2)c1=O)c1ccc(Oc2ccccc2)cc1`, the EC50 in the data set on Streptococcus and on Streptokinase A was > 150 µM (not active) in each case.

For `O=C1CC(c2nc3ccccc3[nH]2)CN1c1ccccc1F` (stereo not drawn), the EC50 in data set [4] is reported as > 195 µM (not active).

Regarding `Cc1nc(-c2ccc(Cl)cc2)sc1C1(C)CC(c2ccc(Cl)cc2)=NO1` (stereo not drawn), the EC50 in data set [4] is > 195 µM (not active). In the case of `CCOC(=O)c1cnc(-c2ccccc2)nc1Oc1cccc(Cl)c1`, at Cytochrome P450 2C19 (read-out: AC50), the AC50 is 3.98 µM (inconclusive). For `O=[N+]([O-])c1ccc(Sc2nccn2Cc2ccccc2)c([N+](=O)[O-])c1`, the EC50 in data set [1] is > 60 µM (not active); in data set [2], 3.06 µM (active).

`Cc1ccc(CN(C(=O)Cc2cccs2)C(C(=O)NC2CCCC2)c2ccncc2)cc1` (stereo not drawn): the EC50 in data set [1] was > 60 µM (not active); in data set [2], 2.29 µM (active). The corresponding values for `CN(C)c1ccc(C(=S)N2CCN(S(=O)(=O)c3ccccc3)CC2)cc1` are > 60 µM (not active) and 2.98 µM (active). In the case of `O=C(Cn1cnc2c(nnn2Cc2ccc(Cl)cc2)c1=O)N1CCCc2ccccc21`, in data set [4], the EC50 is recorded as > 195 µM (not active).
